According to patent US11452712B2, “Methods and compositions involving (S)-bucindolol” (ARCA BIOPHARMA, INC., priority 2008, dated 2022):
pKi: −log10 of the molar value.

Legend:
[1] = cited from earlier work
[2] = system: Human umbilical vein endothelial cells; test: CaI-stimulated ONOO− release in HUVECs (nanosensor); format: cell-based; conditions: 1.0 μM drug; for ONOO− levels: CaI stimulation, mean±S.D.; for reduction of ONOO− levels: versus control
From the text: FIG. 1. Schematic diagram of a NO nanosensor placed in close proximity to the surface of a single endothelial cell. The nanosensor measures the levels of NO, O2^−, and ONOO^− from the intact endothelium in real time. The sensors are made by depositing a sensing material on the tip of carbon fiber with a diameter of about 0.5 μm. The fibers are sealed with nonconductive epoxy and electrically connected to wires (gold, copper) with conductive silver epoxy.
(§1) Human umbilical vein endothelial cells were isolated into primary cultures from healthy female donors by Clonetics (San Diego, Calif.) and purchased as proliferating cells. All cell culture donors were healthy, with no pregnancy or prenatal complications. None of the donors took any drugs regularly and all were nonsmokers and consumed regular caloric/content diet. The cultured cells were incubated in 95% air/5% CO2 at 37° C. and passage by an enzymatic (trypsin) procedure. The confluent cells (4 to 5×10^5 cells per 35-mm dish) were placed with minimum essential medium containing 3 mM L-arginine and 0.1 mM (6R)-5,6,7,8-tetrahydrobiopterin (BH4). Before the experiments, the cells (from second or third passage) were rinsed twice with Tyrode-HEPES buffer with 1.8 mM CaCl2. Bucindolol and its enanatiomers were obtained from Arca Discovery (Denver, Colo.).
(§2) The quantification of each analyte (concentration in nmol/L) was performed using a maximum current from amperograms and standard calibration curves. The reproducibility of measurements with nanosensors is relatively high, as previously described (Lvovich and Scheeline, 1997; Malinski and Taha, 1992). […] The sensors were slowly raised 5±2 μm from the surface of a single endothelial cell.
(§3) The HUVEC preparation is stable over the course of these experiments with the cells remaining viable and active responses to NO stimulation in culture for >24 hours. For robust statistical analysis, randomly selected cells were used for each concentration and type of drug used in these analyses.

β1AR Arg/Arg = molecular target: T1, β1AR Arg/Arg (Homo sapiens, UniProt P08588, G389R); test: Force development in isolated failing human right ventricular trabeculae, β1AR Arg/Arg; format: cell-based
T1 construct: isolated failing human right ventricular trabeculae; from tissue; host or cells: isolated failing human right ventricular trabeculae, β1AR Arg/Arg genotype
T1 sequence (P08588 whole entry G389R): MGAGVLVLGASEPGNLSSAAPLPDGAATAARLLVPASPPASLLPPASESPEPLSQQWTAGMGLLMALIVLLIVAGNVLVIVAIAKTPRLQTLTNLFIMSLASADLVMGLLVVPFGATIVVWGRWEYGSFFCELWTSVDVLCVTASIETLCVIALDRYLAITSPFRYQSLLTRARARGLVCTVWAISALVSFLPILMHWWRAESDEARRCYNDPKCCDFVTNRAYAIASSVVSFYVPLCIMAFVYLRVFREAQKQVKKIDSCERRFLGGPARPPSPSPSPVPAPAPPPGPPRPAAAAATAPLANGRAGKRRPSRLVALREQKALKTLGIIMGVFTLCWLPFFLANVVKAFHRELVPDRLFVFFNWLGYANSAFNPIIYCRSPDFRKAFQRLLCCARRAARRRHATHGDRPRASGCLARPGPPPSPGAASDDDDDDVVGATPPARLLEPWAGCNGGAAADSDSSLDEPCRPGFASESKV

[3] = system: Human umbilical vein endothelial cells; test: CaI-stimulated NO release in HUVECs (electrochemical nanosensor); format: cell-based; conditions: 1.0 μM drug, 6 hr pretreatment; for NO release: 1.0 μM CaI stimulation, mean±S.D.; for increase in NO release: versus control
Protocol: as §1
(§4) Measurement of NO was carried out with electrochemical nanosensors (FIG. 1). Their design was based on previously developed and well-characterized chemically modified carbon-fiber technology (Lvovich and Scheeline, 1997; Malinski and Taha, 1992). Each of the nanosensors was constructed by depositing a sensing material on the tip of a carbon fiber (length 4-5 μm, diameter 0.2-0.5 μm). The fibers were sealed with nonconductive epoxy and electrically connected to copper wires with conductive silver epoxy. The inventors used a conductive film of polymeric nickel (II) tetrakis (3-methoxy-4-hydroxyphenyl) porphyrin for the NO-sensor.
The NO nanosensors (diameter 1-2 μm) with a platinum wire (0.1 mm) counter electrode and saturated calomel reference electrode (SCE) were applied. Differential pulse voltammetry (DPV) and amperometry were performed with a computer-based Gamry VFP600 multichannel potentiostat. DPV was used to measure the basal NO concentrations, and amperometry was used to measure changes in NO concentrations from its basal level with time. The DPV current at the peak potential characteristic for NO oxidation (0.65 V) […] was directly proportional to the local concentrations of these compounds in the immediate vicinity of the sensor. Linear calibration curves (current vs. concentration) were constructed for each sensor from 10 nM to 3 μM before and after measurements with aliquots of NO standard solutions, respectively. The detection limit of the sensors was 1.0 nM.
as §2, §3

[4] = system: Human umbilical vein endothelial cells; test: CaI-stimulated NO/ONOO− release ratio in HUVECs; format: cell-based; conditions: for increase in NO/ONOO− ratio: 1.0 μM drug; for favorable effect on endothelial function as compared to bucindolol racemate: NO and ONOO− release, HUVECs
Protocol: as §1, §4, §2
The most comprehensive measurement of endothelial function is the ratio of NO to
ONOO^− following treatment with these agents. […] The basis for these differences is not understood but may be due to genetic variability in the eNOS protein. Bucindolol racemate (1.0 μM) increased the NO/ONOO^− ratio in white donors (49%), Mexican American donors (23%), and African American donors (38%) as shown in FIGS. 11-13. […] Again, the favorable effects of bucindolol and its enanatiomers were much more apparent at the higher dose (10.0 μM) by at least two fold. The effect at the high concentration was especially evident in higher risks populations (African Americans, Mexican Americans).

β1AR Gly carrier = molecular target: T2, β1AR Gly carrier (Homo sapiens, UniProt P08588); test: Force development in isolated failing human right ventricular trabeculae, β1AR Gly carrier; format: cell-based
T2 construct: isolated failing human right ventricular trabeculae; from tissue; host or cells: isolated failing human right ventricular trabeculae, β1AR 389 Gly carrier genotypes
T2 sequence (P08588 whole entry): as the sequence (P08588 whole entry G389R) above, with R389G counted along it

β1 389 Gly/Gly receptor = molecular target: T3, β1 389 Gly/Gly receptor (Homo sapiens, UniProt P08588); test: Competition binding in human LV membranes, β1 389 Gly/Gly; conditions: 83% β1 AR, genotype 389 Gly/Gly
T3 construct: human LV membranes that are 83% β1; AR and genotypically 389 Gly/Gly; from tissue; host or cells: human left ventricular membranes, one patient, genotype 389 Gly/Gly
T3 sequence (P08588 whole entry): as the sequence (P08588 whole entry G389R) above, with R389G counted along it
Protocol: (§5) FIG. 14A, 14B. 14A—Competition curve between S- or R-bucindolol in human LV membranes that are 86% β1. AR and genotypically 389 Arg/Arg. The respective Kis are 0.49 nM and 14.0 nM for the S- and R-isomers. 14B—Competition curve between S- or R-bucindolol in human LV membranes that are 83% β1. AR and genotypically 389 Gly/Gly. The respective Kis are 0.59 nM and 26.3 nM for the S- and R-isomers.
(§6) FIG. 14 gives the binding of S- and R-bucindolol in left ventricular membranes prepared from one patient who had the β1 389 Arg/Arg receptor (FIG. 14A), and another with the Gly/Gly (FIG. 14B) genotype. As can be observed, the S-isomer has much higher affinity, in both genotypes. In addition, the Kis are similar for both the S- (0.5-0.6 nM) and R- (around 14-26 nM) isomers in the Arg/Arg and Gly/Gly preparations. Similar results were obtained in the presence of Gpp(NH)p.

β1 389 Arg/Arg receptor = molecular target: T4, β1 389 Arg/Arg receptor (Homo sapiens, UniProt P08588, G389R); test: Competition binding in human LV membranes, β1 389 Arg/Arg
T4 construct: left ventricular membranes prepared from one patient who had the β1 389 Arg/Arg receptor; from tissue; host or cells: human left ventricular membranes, one patient, genotype 389 Arg/Arg
T4 sequence (P08588 whole entry G389R): as the sequence (P08588 whole entry G389R) above
Protocol: as §5, §6

[5] = human LV membranes, 86% β1 AR, genotype 389 Arg/Arg
[6] = span over the Arg/Arg and Gly/Gly preparations

In the case of CC(C)(Cc1c[nH]c2ccccc12)NCC(O)COc1ccccc1C#N (racemic) [bucindolol, 2-(3-(1-(1H-indol-3-yl)-2-methylpropan-2-ylamino)-2-hydroxypropoxy)benzonitrile], the “hazard ratio for the primary endpoint of all-cause mortality” value ([1]; advanced heart failure, at premature stop of trial, C.I.s 0.78-1.02) is listed as 0.90, the “mortality versus placebo (in words)” value ([1]; at early termination of BEST) is listed as “no significant difference in mortality” and the “reduction of mortality or heart failure hospitalization” value ([1]; entire BEST cohort, p<0.0001) is listed as 19%. For the same compound, the “ONOO− levels” value ([2]; African American donors) was 378 ± 30 nM, the “reduction of ONOO− levels” value ([2]; African American donors) was 12% and the “ONOO− levels” value ([2]; Mexican American donors) was 422 ± 27 nM. The “reduction of ONOO− levels” value ([2]; Mexican American donors) was 14%, the “ONOO− levels” value ([2]; non-Hispanic white donors) was 244 ± 29 nM and the “reduction of ONOO− levels” value ([2]; non-Hispanic white donors) was 19%. The “functional behaviour at the receptor (force development)” value (shortened to “functional behaviour at the receptor”) (β1AR Arg/Arg; high signal transduction, adenylyl cyclase activated by forskolin) was “inverse agonist”, the “functional behaviour at the receptor” value (β1AR Arg/Arg; low levels of signal transduction (low receptor activation)) was “neutral antagonist” and the NO release ([3]; African American donors) was 306 ± 25 nM. The “increase in NO release” value ([3]; African American donors) was 22%, the NO release ([3]; Mexican American donors) was 321 ± 28 nM and the “increase in NO release” value ([3]; Mexican American donors) was 5%. The NO release ([3]; non-Hispanic white donors) was 475 ± 27 nM, the “increase in NO release” value ([3]; non-Hispanic white donors) was 16% and the “increase in NO/ONOO− ratio” value ([4]; African American donors) was 38%. The “increase in NO/ONOO− ratio” value ([4]; Mexican American donors) was 23%, the “increase in NO/ONOO− ratio” value ([4]; white donors) was 49% and the “functional behaviour at the receptor” value (β1AR Gly carrier; in the presence of forskolin) was “neutral antagonist”. The “functional behaviour at the receptor” value (β1AR Gly carrier; low activation states) was “inverse agonist”.

CC(C)(Cc1c[nH]c2ccccc12)NCC(O)COc1ccccc1C#N (single isomer, unassigned) [(R)-bucindolol] showed a pKi (β1 389 Gly/Gly receptor) of 7.58, a pKi (β1 389 Arg/Arg receptor; [5]) of 7.85 and a pKi (β1 389 Arg/Arg receptor; [6]) of 7.59 to 7.85. For the same compound, the “favorable effect on endothelial function as compared to bucindolol racemate” value [4] was “less activity”.

With CC(C)(Cc1c[nH]c2ccccc12)NCC(O)COc1ccccc1C#N (single isomer, unassigned) [(S)-bucindolol] the pKi (β1 389 Gly/Gly receptor) was 9.23, the “ONOO− levels” value ([2]; African American donors) was 352 ± 26 nM and the “reduction of ONOO− levels” value ([2]; African American donors) was 18%. The “ONOO− levels” value ([2]; Mexican American donors) was 419 ± 34 nM, the “reduction of ONOO− levels” value ([2]; Mexican American donors) was 15% and the “ONOO− levels” value ([2]; non-Hispanic white donors) was 240 ± 24 nM. For the same compound, the “reduction of ONOO− levels” value ([2]; non-Hispanic white donors) was 23%, the pKi (β1 389 Arg/Arg receptor; [5]) was 9.31 and the pKi (β1 389 Arg/Arg receptor; [6]) was 9.22 to 9.30. The NO release ([3]; African American donors) was 318 ± 16 nM, the “increase in NO release” value ([3]; African American donors) was 27% and the NO release ([3]; Mexican American donors) was 358 ± 32 nM. For the same compound, the “increase in NO release” value ([3]; Mexican American donors) was 17%, the NO release ([3]; non-Hispanic white donors) was 553 ± 35 nM and the “increase in NO release” value ([3]; non-Hispanic white donors) was 35%. For the same compound, the “favorable effect on endothelial function as compared to bucindolol racemate” value [4] was “more pronounced”.

With CC(C)NCC(O)COc1ccc(CC(N)=O)cc1 (stereo not shown) [atenolol] the “effect on NO/ONOO− ratio (in words)” value ([4]; 1.0 and 10.0 μM, three donor groups) was “failed to produce an effect”.
